Data published in patent US12060351B2, “Thiadiazole IRAK4 inhibitors” (Gilead Sciences, Inc., priority 2018, dated 2024).

Assays:
TNFα = test: IRAK4 Monocyte TNFα Cell Based Assay (LPS-stimulated, TR-FRET TNFα detection); parameters: species or system human; details: Homo sapiens, Monocyte, human monocytes, LPS-stimulated; Table 2 second part (compounds 33-343); read-out: EC50 MONO TNF HTRF
In short: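 Monocytes (5,000 cells/well) treated with compound (0.1% DMSO) for 1 hour at 37° C, then stimulated with 50 pg/ml LPS for 4 hours. TNFα in medium quantified by TR-FRET two-antibody detection after overnight room-temperature incubation. Percent of control calculated against unstimulated (0%) and LPS-stimulated (100%) cells.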

IRAK4 enzyme = molecular target: T1, IRAK4 enzyme (Homo sapiens, UniProt Q9NWZ3); test: IRAK4 Biochemical Assay (TR-FRET, STK1 KinEASE); details: 500 μM ATP, Table 2 second part (compounds 33-343), read-out: IC50 IRAK4-HTBS
T1 construct: purchased Carna Biosciences, Chuo-ku, Kobe, Japan
T1 sequence (Q9NWZ3 1-460): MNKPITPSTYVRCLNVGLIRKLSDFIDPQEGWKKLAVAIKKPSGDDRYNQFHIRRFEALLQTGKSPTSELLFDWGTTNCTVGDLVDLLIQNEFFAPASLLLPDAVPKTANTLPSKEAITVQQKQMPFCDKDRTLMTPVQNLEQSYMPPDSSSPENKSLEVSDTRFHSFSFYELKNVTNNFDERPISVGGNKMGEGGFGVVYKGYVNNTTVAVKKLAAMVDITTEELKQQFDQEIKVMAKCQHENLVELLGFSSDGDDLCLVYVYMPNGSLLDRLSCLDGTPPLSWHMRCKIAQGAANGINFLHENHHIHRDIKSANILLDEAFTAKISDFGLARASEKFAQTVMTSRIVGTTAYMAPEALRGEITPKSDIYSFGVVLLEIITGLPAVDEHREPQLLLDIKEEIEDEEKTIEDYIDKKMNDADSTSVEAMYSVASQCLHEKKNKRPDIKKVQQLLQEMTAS
In short: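 Human IRAK4 (0.75 nM) preincubated 15 min with compound and 2 μM STK1 peptide, then reacted 120 min at room temperature with 500 μM ATP in HEPES pH 7.0 buffer with MgCl2 and DTT. EDTA stop with Cryptate anti-phosphopeptide antibody and tracer, 60 min; TR-FRET read as 665/615 nm ratio.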

EC50 (TNFα) [nM] | IC50 (IRAK4 enzyme) [nM] | Compound
4770 | 1.12 | CC(C)Nc1cc(-c2ccc3cc(C#N)cnn23)ncc1-c1nnc(C(=O)N[C@H]2CC[C@@H](O)CC2)s1 [Example 224, 5-(6-(3-cyanopyrrolo[1,2-b]pyridazin-7-yl)-4-(isopropylamino)pyridin-3-yl)-N-((1s,4s)-4-hydroxycyclohexyl)-1,3,4-thiadiazole-2-carboxamide]
22.4 | 0.59 | CNc1cc(-c2ccc3cc(C#N)cnn23)ncc1-c1nnc([C@H]2C[C@H](NC(C)=O)C2)s1 [Example 282, N-((1r,3r)-3-(5-(6-(3-cyanopyrrolo[1,2-b]pyridazin-7-yl)-4-(methylamino)pyridin-3-yl)-1,3,4-thiadiazol-2-yl)cyclobutyl)acetamide]
10.9 | 0.77 | CC(C)Nc1cc(-c2ccc3cc(C#N)cnn23)ncc1-c1nnc([C@H]2CC[C@H](NC(=O)C(C)(C)O)CC2)s1 [Example 315, N-((1r,4r)-4-(5-(6-(3-cyanopyrrolo[1,2-b]pyridazin-7-yl)-4-(isopropylamino)pyridin-3-yl)-1,3,4-thiadiazol-2-yl)cyclohexyl)-2-hydroxy-2-methylpropanamide]
102 | 0.94 | CCOC(=O)Cc1nnc(-c2cnc(-c3ccc4cc(C#N)cnn34)cc2NC(C)C)s1 [Example 318, ethyl 2-(5-(6-(3-cyanopyrrolo[1,2-b]pyridazin-7-yl)-4-(isopropylamino)pyridin-3-yl)-1,3,4-thiadiazol-2-yl)acetate]

The next lines start with the compound.

Compound | EC50 (TNFα) [nM] | IC50 (IRAK4 enzyme) [nM]
CC(C)Nc1cc(-c2ccc3cc(C#N)cnn23)ncc1-c1nnc(C(=O)N[C@H]2C[C@@H](O)C2)s1 [Example 215, 5-(6-(3-cyanopyrrolo[1,2-b]pyridazin-7-yl)-4-(isopropylamino)pyridin-3-yl)-N-((1s,3s)-3-hydroxycyclobutyl)-1,3,4-thiadiazole-2-carboxamide] | 3100 | 0.7
CC(C)Nc1cc(-c2ccc3cc(C#N)cnn23)ncc1-c1nnc(C(=O)N2CCC[C@H]2CO)s1 [Example 217, (S)-7-(5-(5-(2-(hydroxymethyl)pyrrolidine-1-carbonyl)-1,3,4-thiadiazol-2-yl)-4-(isopropylamino)pyridin-2-yl)pyrrolo[1,2-b]pyridazine-3-carbonitrile] | 11.1 | 0.81
CC(C)Nc1cc(-c2ccc3cc(C#N)cnn23)ncc1-c1nnc(C(=O)N[C@H]2C[C@@](C)(O)C2)s1 [Example 218, 5-(6-(3-cyanopyrrolo[1,2-b]pyridazin-7-yl)-4-(isopropylamino)pyridin-3-yl)-N-((1s,3s)-3-hydroxy-3-methylcyclobutyl)-1,3,4-thiadiazole-2-carboxamide] | 858 | 1.12
CC(C)Nc1cc(-c2ccc3cc(C#N)cnn23)ncc1-c1nnc(C(=O)N[C@H]2C[C@](C)(O)C2)s1 [Example 219, 5-(6-(3-cyanopyrrolo[1,2-b]pyridazin-7-yl)-4-(isopropylamino)pyridin-3-yl)-N-((1r,3r)-3-hydroxy-3-methylcyclobutyl)-1,3,4-thiadiazole-2-carboxamide] | 2070 | 0.68
CC(C)Nc1cc(-c2ccc3cc(C#N)cnn23)ncc1-c1nnc(C(=O)N[C@H]2CC[C@H](O)CC2)s1 [Example 220, 5-(6-(3-cyanopyrrolo[1,2-b]pyridazin-7-yl)-4-(isopropylamino)pyridin-3-yl)-N-((1r,4r)-4-hydroxycyclohexyl)-1,3,4-thiadiazole-2-carboxamide] | 131 | 1.39
